From patent publication US20250186321A1, “FORMULATION USING AMINO ACID AND CARBOXYLIC ACID, ORGANIC SALT, AND COMPOSITION COMPRISING SAME AND USE THEREOF” (MIYOSHI OIL & FAT CO., LTD., priority 2021, published 2025)

assay: Appearance of formulation (state at 25° C.); format: physicochemical; details: 25° C.; components (A) and (B) at the compounding molar ratio shown
Protocol: Formulations 1 to 427 shown in Tables 1A to 1D were prepared by the above-described method using the components (A) and (B) at the compounding molar ratios shown in the tables, and their states at 25° C. were observed.

| Structure (SMILES) | state at 25° C. |
| --- | --- |
| CCCCC/C=C\C/C=C\CCCCCCCC(=O)O.CCCCC/C=C\C/C=C\CCCCCCCC(=O)O.N[C@@H](Cc1cnc[nH]1)C(=O)O [Formulation 113] | Solid |
| N[C@@H](Cc1cnc[nH]1)C(=O)O.O=C(O)CCCCC(=O)O.O=C(O)CCCCC(=O)O [Formulation 116] | Solid |
| N[C@@H](Cc1c[nH]cn1)C(=O)O.O=C(O)C[C@H](O)C(=O)O.O=C(O)C[C@H](O)C(=O)O [Formulation 120] | Solid |
| N[C@@H](Cc1c[nH]cn1)C(=O)O.O=C(O)C(O)C(O)C(=O)O.O=C(O)C(O)C(O)C(=O)O [Formulation 122] | Solid |
| N[C@@H](Cc1c[nH]cn1)C(=O)O.O=C(O)c1ccccc1.O=C(O)c1ccccc1 [Formulation 123] | Solid |
| N[C@@H](Cc1c[nH]cn1)C(=O)O.O=C(O)/C=C/c1ccccc1.O=C(O)/C=C/c1ccccc1 [Formulation 124] | Solid |
| N[C@@H](Cc1c[nH]cn1)C(=O)O.O=C1O[C@H]([C@@H](O)CO)C(O)=C1O.O=C1O[C@H]([C@@H](O)CO)C(O)=C1O [Formulation 125] | Solid |
| CC(=O)O.NCC(=O)O [Formulation 128] | Solid |
| CCC(=O)O.NCC(=O)O [Formulation 129] | Solid |
| CCCCCC(=O)O.NCC(=O)O [Formulation 130] | Solid |
| CCCC(=O)O.NCC(=O)O [Formulation 131] | Solid |
| CCCCCCCC/C=C\CCCCCCCC(=O)O.NCC(=O)O [Formulation 133] | Solid |
| CCCCC/C=C\C/C=C\CCCCCCCC(=O)O.NCC(=O)O [Formulation 134] | Solid |
| NCC(=O)O.O=C(O)[C@H](O)[C@@H](O)[C@H](O)[C@H](O)CO [Formulation 135] | Solid |
| CC(O)C(=O)O.NCC(=O)O (stereo not shown) [Formulation 136] | Solid |
| NCC(=O)O.O=C(O)CCCCC(=O)O [Formulation 137] | Solid |
| NCC(=O)O.O=C(O)CCC(=O)O [Formulation 138] | Solid |
| NCC(=O)O.N[C@@H](CCC(=O)O)C(=O)O [Formulation 139] | Solid |
| NCC(=O)O.O=C(O)/C=C/C(=O)O [Formulation 140] | Solid |
| NCC(=O)O.O=C(O)C[C@H](O)C(=O)O [Formulation 141] | Solid |
| NCC(=O)O.O=C(O)C(O)C(O)C(=O)O (stereo not shown) [Formulation 143] | Solid |
| NCC(=O)O.O=C(O)c1ccccc1 [Formulation 144] | Solid |

| Structure (SMILES) | state at 25° C. |
| --- | --- |
| NCC(=O)O.O=C1O[C@H]([C@@H](O)CO)C(O)=C1O [Formulation 145] | Solid |
| NCC(=O)O.O=C1O[C@H]([C@H](O)CO)C(O)=C1O [Formulation 146] | Solid |
| C[C@H](N)C(=O)O.O=CO [Formulation 147] | Solid |
| CC(=O)O.C[C@H](N)C(=O)O [Formulation 148] | Solid |
| CCC(=O)O.C[C@H](N)C(=O)O [Formulation 149] | Solid |
| CCCCCC(=O)O.C[C@H](N)C(=O)O [Formulation 150] | Solid |
| CCCC(=O)O.C[C@H](N)C(=O)O [Formulation 151] | Solid |
| CCCCCCCC/C=C\CCCCCCCC(=O)O.C[C@H](N)C(=O)O [Formulation 153] | Solid |
| CCCCC/C=C\C/C=C\CCCCCCCC(=O)O.C[C@H](N)C(=O)O [Formulation 154] | Solid |
| C[C@H](N)C(=O)O.O=C(O)C(O)C(O)C(O)C(O)CO (stereo not shown) [Formulation 155] | Solid |
| CC(O)C(=O)O.C[C@H](N)C(=O)O (stereo not shown) [Formulation 156] | Solid |
| C[C@H](N)C(=O)O.O=C(O)CCCCC(=O)O [Formulation 157] | Solid |
| C[C@H](N)C(=O)O.O=C(O)CCC(=O)O [Formulation 158] | Solid |
| C[C@H](N)C(=O)O.N[C@@H](CCC(=O)O)C(=O)O [Formulation 159] | Solid |
| C[C@H](N)C(=O)O.O=C(O)/C=C/C(=O)O [Formulation 160] | Solid |
| C[C@H](N)C(=O)O.O=C(O)C[C@H](O)C(=O)O [Formulation 161] | Solid |
| C[C@H](N)C(=O)O.O=C(O)CC(O)(CC(=O)O)C(=O)O [Formulation 162] | Solid |
| C[C@H](N)C(=O)O.O=C(O)C(O)C(O)C(=O)O (stereo not shown) [Formulation 163] | Solid |
| C[C@H](N)C(=O)O.O=C(O)c1ccccc1 [Formulation 164] | Solid |
| C[C@H](N)C(=O)O.O=C1O[C@H]([C@@H](O)CO)C(O)=C1O [Formulation 165] | Solid |
| C[C@H](N)C(=O)O.O=C1O[C@H]([C@H](O)CO)C(O)=C1O [Formulation 166] | Solid |
| NCCCC(=O)O.O=CO [Formulation 167] | Solid |

| Structure (SMILES) | state at 25° C. |
| --- | --- |
| CC(=O)O.NCCCC(=O)O [Formulation 168] | Solid |
| CCC(=O)O.NCCCC(=O)O [Formulation 169] | Solid |
| CCCCCC(=O)O.NCCCC(=O)O [Formulation 170] | Solid |
| CCCC(=O)O.NCCCC(=O)O [Formulation 171] | Solid |
| CCCCC/C=C\C/C=C\CCCCCCCC(=O)O.NCCCC(=O)O [Formulation 174] | Solid |
| NCCCC(=O)O.O=C(O)CCCCC(=O)O [Formulation 177] | Solid |
| NCCCC(=O)O.O=C(O)CCC(=O)O [Formulation 178] | Solid |
| NCCCC(=O)O.N[C@@H](CCC(=O)O)C(=O)O [Formulation 179] | Solid |
| NCCCC(=O)O.O=C(O)/C=C/C(=O)O [Formulation 180] | Solid |
| NCCCC(=O)O.O=C(O)C[C@H](O)C(=O)O [Formulation 181] | Solid |
| NCCCC(=O)O.O=C(O)C(O)C(O)C(=O)O (stereo not shown) [Formulation 183] | Solid |
| NCCCC(=O)O.O=C(O)c1ccccc1 [Formulation 184] | Solid |
| NCCCC(=O)O.O=C1O[C@H]([C@@H](O)CO)C(O)=C1O [Formulation 185] | Solid |
| NCCCC(=O)O.O=C1O[C@H]([C@H](O)CO)C(O)=C1O [Formulation 186] | Solid |
| CC(C)[C@H](N)C(=O)O.O=CO [Formulation 187] | Solid |
| CC(=O)O.CC(C)[C@H](N)C(=O)O [Formulation 188] | Solid |
| CC(C)[C@H](N)C(=O)O.CCC(=O)O [Formulation 189] | Solid |
| CC(C)[C@H](N)C(=O)O.CCCCCC(=O)O [Formulation 190] | Solid |
| CC(C)[C@H](N)C(=O)O.CCCC(=O)O [Formulation 191] | Solid |
| CC(C)[C@H](N)C(=O)O.O=C(O)[C@H](O)[C@@H](O)[C@H](O)[C@H](O)CO [Formulation 192] | Solid |
| CC(C)[C@H](N)C(=O)O.CC(O)C(=O)O [Formulation 193] | Solid |
| CC(C)[C@H](N)C(=O)O.O=C(O)CCCCC(=O)O [Formulation 194] | Solid |

| Structure (SMILES) | state at 25° C. |
| --- | --- |
| CC(C)[C@H](N)C(=O)O.O=C(O)CCC(=O)O [Formulation 195] | Solid |
| CC(C)[C@H](N)C(=O)O.N[C@@H](CCC(=O)O)C(=O)O [Formulation 196] | Solid |
| CC(C)[C@H](N)C(=O)O.O=C(O)/C=C/C(=O)O [Formulation 197] | Solid |
| CC(C)[C@H](N)C(=O)O.O=C(O)C[C@H](O)C(=O)O [Formulation 198] | Solid |
| CC(C)[C@H](N)C(=O)O.O=C(O)CC(O)(CC(=O)O)C(=O)O [Formulation 199] | Solid |
| CC(C)[C@H](N)C(=O)O.O=C(O)C(O)C(O)C(=O)O (stereo not shown) [Formulation 200] | Solid |
| CC(C)[C@H](N)C(=O)O.O=C(O)c1ccccc1 [Formulation 201] | Solid |
| CC(C)[C@H](N)C(=O)O.O=C1O[C@H]([C@@H](O)CO)C(O)=C1O [Formulation 202] | Solid |
| CC(C)[C@H](N)C(=O)O.O=C1O[C@H]([C@H](O)CO)C(O)=C1O [Formulation 203] | Solid |
| CC(C)C[C@H](N)C(=O)O.O=CO [Formulation 204] | Solid |
| CC(=O)O.CC(C)C[C@H](N)C(=O)O [Formulation 205] | Solid |
| CC(C)C[C@H](N)C(=O)O.CCC(=O)O [Formulation 206] | Solid |
| CC(C)C[C@H](N)C(=O)O.CCCCCC(=O)O [Formulation 207] | Solid |
| CC(C)C[C@H](N)C(=O)O.CCCC(=O)O [Formulation 208] | Solid |
| CC(C)C[C@H](N)C(=O)O.O=C(O)[C@H](O)[C@@H](O)[C@H](O)[C@H](O)CO [Formulation 209] | Solid |
| CC(C)C[C@H](N)C(=O)O.CC(O)C(=O)O [Formulation 210] | Solid |
| CC(C)C[C@H](N)C(=O)O.O=C(O)CCCCC(=O)O [Formulation 211] | Solid |
| CC(C)C[C@H](N)C(=O)O.O=C(O)CCC(=O)O [Formulation 212] | Solid |
| CC(C)C[C@H](N)C(=O)O.N[C@@H](CCC(=O)O)C(=O)O [Formulation 213] | Solid |
| CC(C)C[C@H](N)C(=O)O.O=C(O)/C=C/C(=O)O [Formulation 214] | Solid |
| CC(C)C[C@H](N)C(=O)O.O=C(O)C[C@H](O)C(=O)O [Formulation 215] | Solid |
| CC(C)C[C@H](N)C(=O)O.O=C(O)CC(O)(CC(=O)O)C(=O)O [Formulation 216] | Solid |
